Kill in % and chromatographic logP data for 1 compound are collected here from US6335325B1, “Acylated 4-aminopyridine derivatives as pesticides and fungicides” (Bayer Aktiengesellschaft, priority 1997, dated 2002).

What is called chromatographic logP is lipophilicity estimated from chromatographic retention. High values mean a more lipophilic compound, low ones a more hydrophilic compound.

The test system of series [1] is caterpillars of the owlet moth (Spodoptera exigua). As to the kind of experiment: Spodoptera exigua Test. It is filed as in vivo. Particulars: active compound concentration of 0.0008%; after 6 days; dipped cabbage leaves (Brassica oleracea). The protocol: Solvent: 7 parts by weight of dimethylformamide
Emulsifier: 1 part by weight of alkylaryl polyglycol ether
After the desired period of time, the kill in % is determined. 100% means that all caterpillars have been killed; 0% means that none of the caterpillars have been killed.

Series [2] can be described thus: logP determination by HPLC (EEC Directive 79/831 Annex V. A8). It counts as physicochemical. Conditions: pH 2; pH2; HPLC gradient method, acetonitrile/0.1% strength aqueous phosphoric acid. How it is done:
[logP=The logP values were determined in accordance with EEC Directive 79/831 Annex V. A8 by HPLC (gradient method, acetonitrile/0.1% strength aqueous phosphoric acid]

The compound `CCc1nccc(N(C(=O)Cc2ccc(Oc3ccc(C(N)=S)cc3)cc2)C(=O)OC(C)C)c1Cl` [Preparation Example 1, N-(3-chloro-2-ethyl-pyridin-4-yl)-N-isopropoxycarbonyl-4-(4-aminothiocarbonylphenoxy)-phenylacetamide] came in with a kill in % in series [1] of 100%. Moreover, in series [2], the chromatographic logP was found to be 3.71.
